From paper PMC7587960 (Molecules, 2020)
≈ marks a conversion by molar mass, not a printed value. Entries after “also recorded” stand apart in the source; their conditions may differ. Where two headings read alike, the source gives them in different places.

Experiments:
[1] = test system: influenza A virus (strain A/WSN/33 (H1N1)); test: microbe, parasite or virus in culture; details: A549, 24 h, read-out: IC50 IAV (Strain WSN/33 (H1N1)), A549 cells
Na+/K+-ATPase = test system: Na+/K+-ATPase; design: method as in PMID 30798081; details: cited from earlier work
[2] = test system: influenza A virus (A/Panama/2007/1999 (H3N2))
[3] = test system: influenza A virus (strain A/WSN/33 (H1N1)); details: for IC50: read-out: IC50 IAV (Strain WSN/33 (H1N1)), A549 cells
[4] = test system: influenza A virus (strain A/WSN/33 (H1N1))
in vitro [5] = details: dog
Experimental: (§1) A549 and MDCK cells were seeded in 96-well plates and grown overnight. […] Next, 15 µL of sterile water or Triton X-100 10% (CytoSelect^TM LDH Cytotoxicity Assay Kit) were added to each well in DMEM or MEM, for 10 min, at room temperature. Supernatants were collected and stored at −80 °C until used. Supernatants (90 µL) were transferred to clean 96-well plates and 10 µL of LDH Reagent (CytoSelect^TM LDH Cytotoxicity Assay Kit) were added to each sample and incubated for 20 min. Quantification was performed using a spectrophotometer at 405 nm. The concentration of each sample that reduced cell viability by 50% was estimated as CC50.

[6] = test system: influenza A virus (strain A/WSN/33 (H1N1)); test: microbe, parasite or virus in culture; details: MDCK, 24 h, read-out: IC50 IAV (Strain WSN/33 (H1N1)), MDCK cells
[7] = target: viral polymerase complex (PA, PB1, NP, Strep-PB2) (Influenza A virus, UniProt P03427+P03430+P15659); type: cell-based
[8] = test system: influenza A virus (strain A/WSN/33 (H1N1)) proteins PB1, NP, M1, NS1; type: cell-based
[9] = test system: influenza A virus (strain A/WSN/33 (H1N1)) RNA transcription; type: cell-based
[10] = target: IAV polymerase (PB1, PB2, PA, NP) (Influenza A virus, UniProt P03427+P03430+P15659); type: cell-based
in vitro [11] = details: human
Experimental: as §1

[12] = test system: human tumor-free lung tissue explants; test: Viability of human tumor-free lung explants (LDH release); details: treated lung tissues, 48 h p.i.
[13] = test system: influenza A virus (A/Panama/2007/1999 (H3N2)); design: method as in PMID 31826721; details: pre-treatment for 1 h, human lung tissues, IAV A/Panama/2007/1999 (H3N2); cited from earlier work
IAV (strain A/PR/8/34) = test system: IAV (strain A/PR/8/34); design: method as in PMID 21899996; details: MDCK cells, cited from earlier work

In the case of C[C@]12CC[C@H](NC(=O)CNCCO)C[C@H]1CC[C@@H]1[C@@H]2CC[C@]2(C)[C@@H](C3=CC(=O)OC3)CC[C@]12O [C10], the IC50 [1] is given as about 60 nM, the “Na+/K+-ATPase inhibition” value (Na+/K+-ATPase) is given as “inhibited” and the “reduction of viral titers” value [2] is given as 4 logs. For the same compound, the “viral replication / viral titers” value [2] was “completely abrogated viral replication; also recorded: below the detection limit”, the “reduction of viral titers” value [3] was over 50% and the IC50 [3] was 57 ± 2 nM. For the same compound, the “fold by which the IC50 of oleandrigenin-β-D-glucosyl (1→4)-β-D-digitalose is higher than that of the compound” value [4] was 19 fold, the CC50 (in vitro [5]) was over 5 µM and the IC50 [6] was about 60 nM. The “viral polymerase complex assembly (PA, PB1, NP in complex precipitates)” value [7] was “interfered”, the “early (NS1, NP, PB1) and late (M1) viral protein expression” value [8] was “decreased” and the “viral mRNA levels (NP segment 5, M1 segment 7)” value [9] was “decreased”. The “decrease of polymerase activity” value [10] was over 50%, the CC50 (in vitro [11]) was over 5 µM and the “tissue integrity / tissue toxicity (LDH release)” value [12] was “did not reduce tissue integrity”.

For C[C@]12CC[C@H](NC(=O)CO)C[C@H]1CC[C@@H]1[C@@H]2CC[C@]2(C)[C@@H](C3=CC(=O)OC3)CC[C@]12O [C11, 3β-(hydroxyacetyl)amino-3-deoxydigitoxigenin], the IC50 [1] is listed as about 60 nM, the “Na+/K+-ATPase inhibition” value (Na+/K+-ATPase) is listed as “inhibited” and the “viral replication / viral titers” value [2] is listed as “abolished viral replication; also recorded: below the detection limit”. For the same compound, the “reduction of viral titers” value [3] was over 50%, the IC50 [3] was 62 nM and the “fold by which the IC50 of oleandrigenin-β-D-glucosyl (1→4)-β-D-digitalose is higher than that of the compound” value [4] was 17 fold. It also gave an IC50 ([4]; read-out: IC50 IAV (Strain WSN/33 (H1N1)), MDCK cells) of 66 ± 6 nM, a CC50 (in vitro [5]) of over 5 µM and an IC50 [6] of about 60 nM. For the same compound, the “viral polymerase complex assembly (PA, PB1, NP in complex precipitates)” value [7] was “interfered”, the “early (NS1, NP, PB1) and late (M1) viral protein expression” value [8] was “decreased” and the “viral mRNA levels (NP segment 5, M1 segment 7)” value [9] was “decreased”. The “decrease of polymerase activity” value [10] was “approximately 40%”, the “reduction of polymerase activity” value [10] was “no significant reduction” and the CC50 (in vitro [11]) was over 5 µM. The “tissue integrity / tissue toxicity (LDH release)” value [12] was over 2 fold over control.

For C[C@]12CC[C@H](O)C[C@H]1CC[C@@H]1[C@@H]2CC[C@]2(C)[C@@H](C3=CC(=O)OC3)CC[C@]12O [Digitoxigenin, digitoxigenin, reference compound], the IC50 [1] was 70 ± 10 nM, the “SI (CC50/IC50), A549 cells” value [3] was 92.366 and the “reduction of viral titers” value [3] was over 50%. For the same compound, the “SI (CC50/IC50), MDCK cells” value [4] was 88.052, the CC50 at 24 h (in vitro [5]) was over 5 µM and the IC50 [6] was 72 ± 5 nM. The CC50 at 24 h (in vitro [11]) was over 5 µM.

For CO/C1=C\C(C)=C\[C@@H](C)[C@@H](O)[C@@H](C)C/C(C)=C/C=C/[C@H](OC)[C@@H]([C@@H](C)[C@@H](O)[C@H](C)[C@@]2(O)C[C@@H](O)[C@H](C)[C@@H](C(C)C)O2)OC1=O [bafilomycin A], the “IAV replication in lung tissues” value [13] is given as “abolished IAV replication”.

In the case of COC1C(O)C(OC2CCC3(C)C(CCC4C3CCC3(C)C(C5=CC(=O)OC5)C(OC(C)=O)CC43O)C2)OC(C)C1OC1OC(CO)C(O)C(O)C1O [oleandrigenin-β-D-glucosyl (1→4)-β-D-digitalose], the IC50 (IAV (strain A/PR/8/34); strain A/PR/8/34, converted from µg/mL, read-out: IC50, IAV titer reduction) is given as 1140 nM and the “IC50, IAV titer reduction” value (IAV (strain A/PR/8/34); strain A/PR/8/34) is given as 0.86 µg/mL (≈ 1.14 µM).
